Experimental data published in ChEMBL document CHEMBL1201862, “PubChem BioAssay data set” (2004).
Activity calls are given as the source filed them. Cut-off read from the data, not from the text of the source: actives have a measured IC50 and inactives only a lower limit.

Biological target: Envelope glycoprotein gp160 (Human immunodeficiency virus 1, UniProt Q6QLK5)
Assay: inhibitors of HIV fusion peptide binding, primary screen, biochemical, uHTS, fluorescence dequenching (AID 1986)

Envelope glycoprotein gp160, sequence (Q6QLK5 whole entry, the tested form may be a part): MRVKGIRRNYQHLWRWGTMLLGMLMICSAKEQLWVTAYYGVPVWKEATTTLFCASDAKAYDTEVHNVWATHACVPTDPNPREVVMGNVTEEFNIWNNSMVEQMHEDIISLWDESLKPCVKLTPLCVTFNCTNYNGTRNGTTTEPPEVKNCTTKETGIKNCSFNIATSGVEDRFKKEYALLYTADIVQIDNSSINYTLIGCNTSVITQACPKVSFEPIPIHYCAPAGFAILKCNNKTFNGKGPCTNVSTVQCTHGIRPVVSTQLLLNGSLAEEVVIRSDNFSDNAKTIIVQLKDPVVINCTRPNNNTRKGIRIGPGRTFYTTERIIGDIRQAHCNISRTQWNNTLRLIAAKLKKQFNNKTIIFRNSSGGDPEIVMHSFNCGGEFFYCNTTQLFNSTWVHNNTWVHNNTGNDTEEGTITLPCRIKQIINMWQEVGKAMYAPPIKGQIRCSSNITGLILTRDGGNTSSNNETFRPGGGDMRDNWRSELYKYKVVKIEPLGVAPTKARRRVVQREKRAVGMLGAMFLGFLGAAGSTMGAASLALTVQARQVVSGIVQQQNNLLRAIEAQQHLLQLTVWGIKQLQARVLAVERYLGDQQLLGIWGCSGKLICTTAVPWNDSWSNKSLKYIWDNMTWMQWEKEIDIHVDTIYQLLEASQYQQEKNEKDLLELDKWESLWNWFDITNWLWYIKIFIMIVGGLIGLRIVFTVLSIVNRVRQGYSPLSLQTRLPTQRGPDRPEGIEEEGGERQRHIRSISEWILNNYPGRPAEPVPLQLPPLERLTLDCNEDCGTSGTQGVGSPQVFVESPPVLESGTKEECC

CCOc1ccc(CCNC(=O)c2ccc3c(=O)[nH]c4c(C(=O)NC(C)C)sc(=S)n4c3c2)cc1
IC50: 62.5 µM (active)

COc1cc([N+](=O)[O-])cc(/C=N/NC(=O)c2cc(-c3ccccc3)nc3ccccc23)c1O
IC50: 30.3 µM (active)

CC(C)CS(=O)(=O)C1=NSC2=NC(=O)/C(=C\c3ccc(OC(=O)c4ccco4)cc3)C(=N)N21
IC50: 15.6 µM (active)

CS(=O)(=O)C1=NSC2=NC(=O)/C(=C\c3cccn3-c3ccc(Cl)cc3)C(=N)N21
IC50: 18.5 µM (active)

CSc1ccc(C(c2c(C(=O)O)[nH]c3ccccc23)c2c(C(=O)O)[nH]c3ccccc23)cc1
IC50: 8.99 µM (active)
